Here are results for four molecules from PubChem BioAssay AID651991 (The Scripps Research Institute Molecular Screening Center, 2013).

Calls of active or inactive are those of the source.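 The calls were made as follows: active = CC50 at or below 10 µM in either panel, but not in both panels; inactive = the rest.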 Where only a bound is given, the exact number is not on record here.

This experiment is described as follows: HEK293T cell cytotoxicity, dose response, cytotoxicity control for LYPLA1/LYPLA2 inhibitor project, WST-1 absorbance, serum-free and serum medium (AID 651991). The conditions noted are these: HEK293T viability, 48 h.

In the case of `O=C(CN1CCN(C(=O)c2ccco2)CC1)Nc1cc(C(F)(F)F)ccc1Cl`, the CC50 (in general, the concentration at which the toxic effect on the cells reaches its halfway point) runs as follows: (with 10% FCS) > 50 µM (inactive); (without serum) > 50 µM (inactive).

Regarding `O=C(CN1CCN(C(=O)c2ccco2)CC1)Nc1cc(Cl)ccc1Cl`, the CC50 by setting is: (with 10% FCS) > 50 µM (inactive); (without serum) > 50 µM (inactive).

As for `O=C(c1cc2c(s1)-c1ccccc1S(=O)(=O)C2)N1CCN(c2ccc(Cl)cc2)CC1`, the CC50 by setting is: (with 10% FCS) > 50 µM (inactive); (without serum) > 50 µM (inactive).

Regarding `COc1ccc(N2CCN(C(=O)c3cc4c(s3)-c3ccccc3S(=O)(=O)C4)CC2)cc1`, the CC50 reads like this: (with 10% FCS) > 50 µM (inactive); (without serum) > 50 µM (inactive).
